Tests used:
[1] = Critical (phase transition) temperature Tc by differential scanning calorimetry; format: physicochemical; conditions: lipids 21 and 25, DSC, heating rate 5° C./minute
Procedure: General. Melting points for the diols and the phase transition temperature Tc for the cationic lipids were determined by differential scanning calorimetry (DSC), using a TA-Instruments Q100 DSC, and a heating rate of 5° C./minute. The IR spectra were recorded on a Nicolet Avatar 360 FTIR spectrophotometer in the range 650-4000 cm^−1 using a ZnSe—attenuated total reflectance (ATR) accessory. The compounds were solved in a small amount of solvent (MeOH for the diols, CHCl3 for the lipids), and the resulted solutions were left to evaporate to dryness on the surface of the ZnSe crystals of the ATR accessory. The NMR spectra were recorded at ≈303 K with a Varian Inova spectrometer equipped with a 5 mm indirect detection probe, operating at 500 MHz for ^1H-NMR and at 125 MHz for ^13C-NMR. Chemical shifts are reported as δ values, using TMS as internal standard for proton spectra and the solvent resonance for carbon spectra. Assignments were made based on signal intensity, selective decoupling, COSY (^1H-^1H) and HETCOR (^1H-^13C) sequences. Elemental analyses were performed by combustion, using a Perkin Elmer 2400 Series II CHNS analyser.
Dioleoylphosphatidylethanolamine (DOPE), cholesterol (CHOL), N-(2,3-dioleoyloxypropyl)-N,N,N-trimethylammonium chloride (DOTAP) were commercial products. The purity of the lipids was checked by thin layer chromatography and also by differential scanning calorimetry (DSC), which was also used for determining the critical temperature Tc. For the preparation of the liposomes a protocol optimized for this type of compounds was adopted as follows. The cationic lipid (with or without helper lipid) was dissolved in chloroform/methanol (2/1, v/v) to reach a final concentration of 1 mM for the charged species. From this stock solution 50 μL were aliquoted in a 1 mL tube and the solvent was evaporated in a SpeedVac evaporator, under vacuum, for 1 h. The dried lipid film was prepared by removing the traces of organic solvent in a dessicator, over Drierite®, under vacuum, overnight. The film was hydrated with 500 μL sterile phosphate buffer saline (PBS) the tube was purged with sterile N2, and vortexed for 1 minute. The liposomes were generated by sonicating the tube in a water bath sonicator for 5-30 minutes at 62° C. and at 37° C. for DOTAP. After sonication the preparations were allowed to reach room temperature.
Materials and Methods. Melting points for the diols, acetates and ketals were determined on a Boetius heating plate microscope and are uncorrected. For the cationic lipids 21 and 25 the phase transition temperature Tc was determined by differential scanning calorimetry (DSC), using a TA-Instruments Q100 DSC, and a heating rate of 5° C./minute. The IR spectra were recorded on a Nicolet Avatar 360 FTIR spectrophotometer, in the range 650-4000 cm^−1, using a ZnSe—attenuated total reflectance (ATR) accessory. The compounds were solved in a small amount of solvent (MeOH for the diols, CHCl3 for the esters), the resulted solutions being left to evaporate to dryness on the surface of the ZnSe crystals of the ATR accessory. This technique was imposed by the poor results obtained in transmission mode for some of the compounds, due to the lack of crystallization, hygroscopicity and other problems related with working with KBr pellets. The NMR spectra were recorded at ≈303 K with a Varian Gemini 300BB spectrometer operating at 300 MHz for ^1H and at 75 MHz for ^13C. Chemical shifts are reported as δ values, using TMS as internal standard for proton spectra and the solvent resonance for carbon spectra: 77.00 ppm in CDCl3, 39.50 ppm in DMSO-d6, the line from 123.50 ppm in pyridine-d5, 62.80 ppm in nitromethane-d3, 30.10 ppm in dimethylformamide-d7. Assignments were made based on signal intensity, selective decoupling and COSY (^1H-^1H) and HETCOR (^1H-^13C) sequences. Nitrogen elemental analysis was performed by combustion, mixing the samples with small amounts of quartz sand.

[2] = tested on: HeLa cells (human carcinoma cell line ATCC No. CCL-2); test: Luciferase (pGL3-Control) transfection efficiency, HeLa cells; format: cell-based; conditions: no helper lipid, DOTAP as reference
Procedure: Transfection experiments were carried out in vitro on HeLa cells (human carcinoma cell line ATCC No. CCL-2), using a pGL3-Control plasmid (Promega, Madison, Wisc.), which encodes the firefly luciferase reporter. The structurally related and commercially available DOTAP (2) mentioned earlier was chosen as reference.
HeLa cell line was obtained from ATCC, MD. The plasmid pGL3-control, encoding a firefly luciferase reporter was from Promega (Madison, Wisc.). As transfection reference we used N-[1-(2,3-dioleoyloxy)propyl]-N,N,N-trimethylammonium methylsulfate (DOTAP), obtained from Roche Molecular Biochemicals (Indianapolis, Ind.). The BCA protein assay kit was from Pierce (Rockford, Ill.).
All of the pyridinium cationic lipids, along with the DOTAP reference, were tested in triplicate in two independent assays. The pyridinium cationic lipids containing tetrafluoroborate (BF4^−) or perchlorate (ClO4^−) anion were dissolved in ethanol/chloroform. The lipid solution was evaporated to dryness using a Speedvac rotary evaporating device, under vacuum. Traces of solvents were removed from the lipid film by keeping the vials under vacuum for another 3 hours. Ultrapure water was added to the dry lipid film, so that a final 1 μg/μL concentration could be reached, and the lipid film was allowed to hydrate overnight. […]

CCCCCCCCCCCCCCCC(=O)OCC(COC(=O)CCCCCCCCCCCCCCC)[n+]1c(C)cc(C)cc1C.F[B-](F)(F)F [Lipid 25AbP, 1-(1,3-Dipamitoyloxypropane-2-yl)-2,4,6-trimethylpyridinium tetrafluoroborate]
Tc (phase transition temperature) [1]: 70 °C | transfection efficiency (in words) [2]: comparable with that of DOTAP
